As usually defined, the melting point is the temperature of the solid-liquid transition. Compound `CC(=O)/C(=N\Nc1ccc([N+](=O)[O-])cc1)C(=O)C(F)(F)F` gave a melting point of 140 °C.
With `O=C(O)c1ccc(F)cc1C(F)(F)F` the figure was 123 °C.
Under `O=C(O)c1cc([N+](=O)[O-])c(Cl)c([N+](=O)[O-])c1` stands 161 °C; under `CC12CCC(C(O)C(C(c3ccccc3)C3C(=O)C4(C)CCC(C3O)C4(C)C)C1=O)C2(C)C` (stereo not given), 149 °C; under `Cn1ccc(C#N)n1`, 41.5 to 45 °C.
`C[C@]12CCC(=O)C=C1CC[C@@H]1[C@@H]2CC[C@@]2(C)[C@H]1CC[C@]2(O)C#Cc1ccccc1` showed a melting point of 185 to 187 °C.
Under `Cc1cc(C)n2nc(N)c(/N=N/c3ccccc3C)c2n1` stands 256 °C.
`CCOc1cc2c(cc1OCC)C(CC(=O)O)NCC2` (stereo not given) gave a melting point of 259 to 260 °C.
The compound `OCc1ccccc1C(c1ccc(O)cc1)c1ccc(O)cc1` showed a melting point of 202 °C.
The compound `CC1(C)C2CCC1(C)C(C(=O)O)C2CC(O)c1ccccc1` (stereo not given) had a melting point of 119 °C.
With `CCOC(=O)c1cc(C)n(-c2cc(C)[nH]n2)n1` the figure was 120 to 122 °C.
`CC(=O)OC(C)CC(C)C` (stereo not given) registered a melting point of -64 °C.
With `COC(=O)c1ccccc1S(=O)(=O)NC(=O)Nc1nc(C)cc(C)n1` the figure was 204 °C; with `CCCCCCCCCCCCN`, 28.3 °C; with `Nc1nccc(-c2cc(-c3cccc(C(F)(F)F)c3)no2)n1`, 184 to 185 °C.
With `N#Cc1c(Cl)c(Cl)nc(Cl)c1Cl` the figure was 139 to 142 °C; with `CC(=O)Oc1ccc(N)cc1`, 74 °C; with `O=C1CN=C(c2ccccc2)c2cc(Cl)ccc2N1CC(F)(F)F`, 164 °C.
Take `O=c1[nH]c2ccc([N+](=O)[O-])cc2c(=O)o1`: the melting point is 259 to 263 °C.
Turning to `C(=C(/c1ccccc1)c1nc2ccccc2s1)/c1ccccc1`, the melting point was found to be 109 °C.
`Nc1ccc([N+](=O)[O-])cc1C(=O)O` came in with a melting point of 278 °C.
With `COC(=O)c1cc(Br)cc(Br)c1N` the figure was 88 °C; with `O=c1c2ccccc2ccc2ccccc12`, 88.5 °C.
With `O=C(O)[C@H]1CC[C@H](C(=O)O)CC1` the figure was 312 °C; with `c1cc2ccc3cccc4ccc(c1)c2c34`, 153 °C; with `C1CSCSC1`, 54 °C.
With `Nc1cccc(C(F)(F)F)n1` the figure was 88 °C.
Compound `O=Cc1ccncc1` showed a melting point of -4 °C.
Compound `Cc1ccc(C2C(C#N)=C(N)Oc3c2c(C(F)(F)F)nn3-c2ccccc2)cc1` (stereo not given) had a melting point of 205 °C.
With `Clc1c(Cl)c(Cl)c2c(c1Cl)OC(c1ccccc1)O2`, the melting point amounted to 115 °C.
Regarding `CSc1nc(N)nc(-c2ccccn2)n1`, the melting point lay in the range of 193 to 196 °C.
Under `CC(N)Cc1ccc(O)cc1` (stereo not given) stands 126 °C; under `COc1cc(C(C)=O)cc(OC)c1OC`, 81 °C.
Under `CC(C)(C)c1cc(C(=Nc2ccccc2)Nc2ccccc2)cc(C(C)(C)C)c1O` stands 130 to 131 °C.
Under `CC(C)(O)Cc1ccccc1` stands 24 °C; under `CCN(CC)C(=O)C1=C(C)NC(=O)NC1c1ccccc1` (stereo not given), 181 °C.
`O=C1NC2CC=CCC12` (stereo not given) showed a melting point of 122 °C.
In turn, `COc1ccc(C2=CCC3(C)C(CCC4C3CCC3(C)C(OC(C)=O)CCC43)C2)cc1` (stereo not given) returned a melting point of 177 to 180 °C.
In turn, `O=C(N=C=S)c1ccc([N+](=O)[O-])cc1` showed a melting point of 90 to 92 °C.
Under `COC(=O)C1(S(=O)(=O)c2ccc(Br)cc2)CCCC1` stands 104 °C.
For the compound `CC(C)CN(CC(C)C)CC(C)C`, the melting point was -21.8 °C.
With `c1ccc(Cc2ccc3ccccc3c2)cc1` the figure was 58 °C; with `CC(=O)C(C(=O)OC1CC(C)CCC1C(C)C)C(C)C(C(C)=O)/C(=N\NC(N)=O)OC1CC(C)CCC1C(C)C` (stereo not given), 200 °C.
With `Nc1ccncc1C=O` the figure was 110 °C; with `CC(C(O)c1ccccc1)N(C)CC=Cc1ccccc1` (stereo not given), 75 °C; with `Nc1c(C(=O)O)sc2ncccc12`, 202 to 204 °C.
Under `CC(C)(C)C(=O)C=Cc1ccccc1` stands 43 °C.
Consider `COP(=S)(OC)Oc1ccc(C#N)cc1`, for which the melting point was found to be 14.5 °C.
`O=C(O)C(c1ccccc1)C1CCCCC1` (stereo not given): the melting point lay in the range of 148 to 151 °C.
As for `O=C(Nc1ccc([N+](=O)[O-])cc1[N+](=O)[O-])C(C(F)(F)F)(C(F)(F)F)C(F)(F)F`, the melting point worked out at 164 °C.
For `CCC(C)(C(N)=O)c1ccccc1` (stereo not given), the melting point amounted to 101 °C.
Under `O=[N+]([O-])c1ccc(S(=O)(=O)F)cc1` stands 76 to 80 °C.
As for `OCc1cc(C(F)(F)F)ccc1Cl`, the melting point turned out to be 59 °C.
Under `CC(C)(C)OC(=O)N1CC(C(=O)O)C1` stands 102 °C.
With `CCCCCCNC(=O)c1ccc(O)c(O)c1` the figure was 140 °C.
With `COC(=O)CC#N` the figure was -13 °C.
Compound `O=C(CBr)OCc1ccc([N+](=O)[O-])cc1` displayed a melting point of 50 °C.
`CC1(c2ccccc2)C(=O)NC(=O)NC1=O` gave a melting point of 224 °C.
With `CC(=O)NC1=NC(=O)C(=Cc2coc3ccc(Br)cc3c2=O)N1C` the figure was 259 to 261 °C; with `Cc1ccccc1N1C(=O)C2ON=C(C(=O)c3ccco3)C2C1=O` (stereo not given), 203 to 204 °C; with `CSc1nc2cc(NCc3ccccc3)ccc2[nH]1`, 164 to 167 °C.
With `CCOC(=O)c1c(N)sc2c1CCCC2` the figure was 116 °C; with `CC(C)Nc1ccc(C(F)(F)F)cc1[N+](=O)[O-]`, 103 to 105 °C; with `O=C(O)C(c1ccccc1)(c1ccccc1)c1ccccc1`, 268 to 269 °C.
With `CC(=O)c1cc2c(cc1C)C(C)(C)C(C)CC2(C)C` (stereo not given) the figure was 54.5 °C; with `c1ccc2cc3c(cc2c1)nnc1ncnn13`, 198 to 202 °C.
The compound `CC(C)CCSCCC(C)C` registered a melting point of -74.6 °C.
With `[N-]=[N+]=Nc1ccc(Br)cc1` the figure was 20 °C; with `O=Cc1cccn1S(=O)(=O)c1ccccc1[N+](=O)[O-]`, 139 to 141 °C.
Under `CC(=O)N(Nc1ccccc1)c1ccc(-c2ccc(/N=N/c3ccccc3)cc2)cc1` stands 244 °C; under `CC(=O)NCc1cnccc1C`, 92 °C.
Under `O=S(=O)(Cl)Cc1ccccc1Cl` stands 60 to 62 °C; under `CC(CCC(=O)O)Cc1ccccc1` (stereo not given), 56 °C; under `CNC(=O)C(C)SCCSP(=O)(OC)OC` (stereo not given), 43 °C.
Compound `COCc1cc(=O)oc2cc(O)c(Cl)cc12` returned a melting point of 196 to 198 °C.
Under `Cc1ccc(C(N)CC(=O)O)cc1` (stereo not given) stands 223 to 227 °C; under `CCCCOCCCN`, -65 °C.
For `O=C(c1ccc(Br)cc1)c1[nH]c2c(c1O)C(c1ccc(Br)cc1)c1c(c3ccccc3oc1=O)O2` (stereo not given), the melting point worked out at 230 °C.
`CC(=O)Nc1ccc(N=Nc2ccc(N=Nc3ccc(/N=N/c4ccc(NC(C)=O)cc4)cc3)cc2)cc1` came in with a melting point of 245 to 248 °C.
Under `Cc1cncc(Cl)n1` stands 48 to 52 °C; under `CCCCCCCCCCCCCCCCCCCCCCCCCCCCCC(=O)O`, 93.6 °C; under `ON=CC=Cc1ccccc1`, 115 to 125 °C.
Under `N=C1NC(=O)CS1` stands 249 °C; under `C(=C\P(c1ccccc1)c1ccccc1)/P(c1ccccc1)c1ccccc1`, 123 to 128 °C.
`OCc1csc(-c2cccnc2)n1` showed a melting point of 120 to 121 °C.
With `Oc1ncnc2[nH]cnc12` the figure was 250 °C; with `CC1=NN(c2ccccc2)C(=O)/C1=C\c1ccccc1O`, 153 to 154 °C; with `Cc1ccc(C=NO)cc1`, 126 °C.
For the compound `CC1(C)CCC(C)(C)c2cc(S(=O)(=O)Cl)ccc21`, the melting point fell in the range of 78 to 80 °C.
Under `CN1C(c2cccnc2)N(C)[C@@H](c2ccccc2)[C@@H]1c1ccccc1` stands 99 to 102 °C.
With `O=C(O)c1ccc(C(=O)O)nc1` the figure was 254 °C.
With `Sc1nccc(-c2cccs2)n1` the figure was 206 to 215 °C; with `OCC1(CO)CC=CCC1`, 88.5 °C; with `Cc1cn(CCC(=O)O)c2ccccc12`, 87 to 88 °C.
Consider `CC1=C(C)C(=O)C(C)=C(C)C1=O`, for which the melting point was found to be 112 °C.
With `FC(F)(F)c1n[nH]c(=S)[nH]1` the figure was 161 to 164 °C.
With `CCNC(=S)Nc1ccccc1` the figure was 102 to 104 °C; with `COc1cscc1C(=O)O`, 105 to 108 °C; with `O=C(NC(=O)c1ccccc1Cl)Nc1ccc(OC(F)(F)F)cc1`, 195 °C.
With `O=c1oc2c(O)c(O)cc3c(=O)oc4c(O)c(O)cc1c4c23` the figure was 450 °C.
Compound `CON(C)C(=O)Nc1ccc(Br)c(Cl)c1` yielded a melting point of 96 °C.
The compound `O=C(C=NO)Nc1ccc(Cl)cc1Cl` came in with a melting point of 198 to 201 °C.
`COC(=O)c1cc2occc2[nH]1` came in with a melting point of 139 to 140 °C.
With `CC(C)(O)CCSc1ccc(S(N)(=O)=O)cc1` the figure was 140 °C; with `O=C(/C=C/c1ccccc1)Oc1ccc(/C=C/C(=O)c2ccccc2)cc1`, 158 °C; with `CC(C)(C)Oc1ncc(Br)c(OC(C)(C)C)n1`, 60 °C.
With `Fc1c(F)c(CCl)c(F)c(F)c1CCl` the figure was 77 to 78 °C; with `C=CC1C2=CCOC(=O)C2=COC1OC1OC(CO)C(O)C(O)C1O` (stereo not given), 191 °C; with `FC(F)(F)Sc1ccc(CBr)cc1`, 55 °C.
Compound `C=CC1(C)CC(OC(=O)CO)C2(C)C(C)CCC3(CCC(=O)C32)C(C)C1O` (stereo not given) came in with a melting point of 170 °C.

The values above are taken from a melting point compilation (Tetko et al.).
